Holding throughout (format): cell-based
One assay relates to BaF3 wild-type cells. Description: Cellular screening, BaF3 wild-type cells, Alamar Blue. As to conditions: Mus musculus, 40 hr, read-out: BAF3wt IC50_nM. The method, boiled down:
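Cells were cultured in DMEM with 10% FCS and 10% WEHI 3B conditioned medium, and suspensions were prepared at 1.1× final (50,000–200,000 cells/mL). Compounds from 20 μM dilution plates were added at 10× final and incubated for 40 hr at 37° C, 5% CO2. Alamar Blue was then added for 4–6 hours and read at 544 nm.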
In general terms: Alamar Blue is a resazurin reagent that responds to reducing activity.

Another assay concerns the target T1, BaF3 TELJAK3 cells (Homo sapiens, UniProt P52333).
T1 construct: fused on or other part: TEL (ETV6) N-terminal part, coding nucleotides 1-487, serves as the oligomerising partner; It is fused through a Sal I site to the JAK3 kinase domain and expressed from pTRE2 in BaF3 cells bearing pTET-off; P41212 (Transcription factor ETV6)
T1 sequence (P52333 1-1124): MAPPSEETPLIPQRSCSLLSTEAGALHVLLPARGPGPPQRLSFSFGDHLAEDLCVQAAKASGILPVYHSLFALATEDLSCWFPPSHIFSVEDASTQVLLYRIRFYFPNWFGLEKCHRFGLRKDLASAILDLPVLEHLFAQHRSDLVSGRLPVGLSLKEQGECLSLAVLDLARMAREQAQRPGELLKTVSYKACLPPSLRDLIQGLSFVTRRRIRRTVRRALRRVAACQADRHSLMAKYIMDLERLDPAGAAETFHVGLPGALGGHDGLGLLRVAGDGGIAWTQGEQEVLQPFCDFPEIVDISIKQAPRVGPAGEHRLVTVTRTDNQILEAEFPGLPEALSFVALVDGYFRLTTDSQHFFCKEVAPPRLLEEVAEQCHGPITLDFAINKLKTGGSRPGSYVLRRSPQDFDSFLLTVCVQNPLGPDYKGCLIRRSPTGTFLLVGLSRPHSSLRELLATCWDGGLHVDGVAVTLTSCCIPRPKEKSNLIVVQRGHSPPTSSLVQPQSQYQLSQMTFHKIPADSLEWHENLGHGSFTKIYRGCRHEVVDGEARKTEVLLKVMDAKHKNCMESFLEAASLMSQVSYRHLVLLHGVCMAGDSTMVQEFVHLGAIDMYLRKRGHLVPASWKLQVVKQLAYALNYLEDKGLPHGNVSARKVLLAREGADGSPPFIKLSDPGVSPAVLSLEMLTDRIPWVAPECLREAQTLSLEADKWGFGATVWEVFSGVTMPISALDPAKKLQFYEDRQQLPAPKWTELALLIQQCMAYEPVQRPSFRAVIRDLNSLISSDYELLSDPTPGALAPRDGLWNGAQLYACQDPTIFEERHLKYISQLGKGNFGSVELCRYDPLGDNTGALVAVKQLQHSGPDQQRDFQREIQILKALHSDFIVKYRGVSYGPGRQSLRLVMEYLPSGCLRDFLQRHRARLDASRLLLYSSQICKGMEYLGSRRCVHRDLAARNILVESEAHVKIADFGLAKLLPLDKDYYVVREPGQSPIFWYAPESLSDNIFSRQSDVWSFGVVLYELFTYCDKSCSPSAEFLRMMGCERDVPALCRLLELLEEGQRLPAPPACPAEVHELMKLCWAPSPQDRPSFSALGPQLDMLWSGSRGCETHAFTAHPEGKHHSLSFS
The assay is described as follows: Cellular screening, BaF3 TEL:JAK3 cells, Alamar Blue. As to conditions: 40 hr, read-out: BafT_J3 IC50_nM. The procedure, abridged: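 BaF3 cells carrying pTET-off and a TEL–JAK3 kinase-domain fusion, selected for growth-factor independence, were grown in DMEM with 10% Tet-approved FBS without WEHI 3B medium. Cells were exposed to compounds for 40 h at 37 °C, 5% CO2. Viability was read with Alamar Blue (4–6 h) at 544 nm.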

The target in assay [1] is T2, BaF3 TELJAK2 cells (BafT_J2) (Homo sapiens, UniProt O60674).
T2 construct: fused on or other part: TEL (ETV6) N-terminal part, coding nucleotides 1-487, serves as the oligomerising partner; It is fused through a Sal I site to the JAK2 kinase domain and expressed from pTRE2 in BaF3 cells bearing pTET-off; P41212 (Transcription factor ETV6)
The assay is described as follows: Cellular screening, BaF3 TEL:JAK2 cells, Alamar Blue. As to conditions: 40 hr, read-out: BafT_J2 IC50_nM. The procedure, abridged: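 Tet-off BaF3 cells carrying a TEL (nt 1-487)–JAK2 kinase-domain fusion, grown factor-independently in DMEM with 10% Tet-approved FBS without WEHI 3B medium. Compounds were diluted to 20 μM in screening plates, and cells (50,000–200,000 cell/mL at 1.1×) were incubated 40 hr at 37 °C, 5% CO2. Alamar Blue was then added for 4-6 hours; read at 544 nm.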

This is an account of results in patent publication US8846704B2, “Thiopyrimidine-based compounds and uses thereof” (YM Biosciences Austraila Pty Ltd, priority 2007, dated 2014).

T2 sequence (O60674 whole entry, change not shown, the tested form may be a part): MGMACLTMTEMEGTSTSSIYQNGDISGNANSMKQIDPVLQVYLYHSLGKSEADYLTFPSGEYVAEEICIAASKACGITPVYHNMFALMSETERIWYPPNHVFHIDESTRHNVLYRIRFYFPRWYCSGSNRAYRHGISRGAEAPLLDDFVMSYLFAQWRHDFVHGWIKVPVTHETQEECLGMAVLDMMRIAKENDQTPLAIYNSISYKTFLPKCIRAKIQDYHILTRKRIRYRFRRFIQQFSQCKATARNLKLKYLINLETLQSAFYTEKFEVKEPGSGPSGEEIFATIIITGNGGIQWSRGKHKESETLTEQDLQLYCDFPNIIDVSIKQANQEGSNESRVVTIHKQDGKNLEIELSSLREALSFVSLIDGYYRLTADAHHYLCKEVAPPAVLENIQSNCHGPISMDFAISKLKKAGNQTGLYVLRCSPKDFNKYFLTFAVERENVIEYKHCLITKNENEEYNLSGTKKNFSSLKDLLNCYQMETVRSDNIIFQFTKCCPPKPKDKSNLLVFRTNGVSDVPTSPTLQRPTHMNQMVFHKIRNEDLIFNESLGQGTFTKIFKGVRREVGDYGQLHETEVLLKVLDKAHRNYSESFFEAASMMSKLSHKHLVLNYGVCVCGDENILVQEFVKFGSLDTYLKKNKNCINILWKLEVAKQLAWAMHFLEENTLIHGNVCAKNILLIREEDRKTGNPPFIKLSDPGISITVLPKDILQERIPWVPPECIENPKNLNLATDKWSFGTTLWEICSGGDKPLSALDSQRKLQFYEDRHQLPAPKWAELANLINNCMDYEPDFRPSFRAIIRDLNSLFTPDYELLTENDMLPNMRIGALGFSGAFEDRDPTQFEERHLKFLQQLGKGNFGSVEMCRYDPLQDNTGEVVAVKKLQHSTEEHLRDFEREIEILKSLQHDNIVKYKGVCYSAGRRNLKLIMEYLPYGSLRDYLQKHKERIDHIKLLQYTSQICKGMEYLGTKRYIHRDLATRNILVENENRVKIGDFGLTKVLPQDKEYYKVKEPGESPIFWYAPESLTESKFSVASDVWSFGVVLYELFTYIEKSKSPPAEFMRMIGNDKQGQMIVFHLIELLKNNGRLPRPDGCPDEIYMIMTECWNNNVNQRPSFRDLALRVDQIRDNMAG

In the case of `N#CCC(=O)Nc1cccc(Sc2ccnc(Nc3ccc(N4CCOCC4)cc3)n2)c1` [Compound 24, N-(3-(2-(4-morpholinophenylamino)pyrimidin-4-ylthio)phenyl)-2-cyanoacetamide], the IC50 in the assay on BaF3 wild-type cells is < 20 µM. The GI50 (on BaF3 TELJAK3 cells; in assay [1]) was < 20 µM each time.
Turning to `C=CC(=O)Nc1ccc(Sc2nc(Nc3cccc(N4CCN(C)CC4)c3)ncc2C)cc1` [Compound 243, N-(4-(5-methyl-2-(3-(4-methylpiperazin-1-yl)phenylao)pyrimidin-4-ylthio)phenyl)acrylamide], the IC50 in the assay on BaF3 wild-type cells is < 5 µM. The values for the GI50 (on BaF3 TELJAK3 cells; in assay [1]) were < 1 µM and < 5 µM, respectively.
With `Cc1cnc(Nc2cccc(O)c2)nc1Sc1ccc(NC(=O)CCl)cc1` [Compound 194, 2-chloro-N-(4-(2-(3-hydroxyphenylao)-5-methylpyrimidin-4-ylthio)phenyl)acetamide], the IC50 in the assay on BaF3 wild-type cells was < 5 µM. For the same molecule, the GI50 is < 1 µM on BaF3 TELJAK3 cells and < 5 µM in assay [1].
`C=CC(=O)Nc1ccc(Sc2ccnc(Nc3ccc(N4CCOCC4)cc3)n2)cc1OC` [Compound 123, N-(2-methoxy-4-(2-(4-morpholinophenylao)pyrimidin-4-ylthio)phenyl)acrylamide]: the IC50 in the assay on BaF3 wild-type cells is < 5 µM. The GI50 (at BaF3 TELJAK3 cells; in assay [1]) was < 5 µM each time.
Take `C=CC(=O)Nc1cccc(Nc2nccc(Sc3ccccn3)n2)c1` [Compound 2, N-(3-(4-(pyridin-2-ylthio)pyrimidin-2-ylamino)phenyl)acrylamide]: the IC50 in the assay with BaF3 wild-type cells is < 5 µM. Moreover, the GI50 was < 1 µM on BaF3 TELJAK3 cells and < 5 µM in assay [1].
For `c1cc(Sc2ccc(Cn3cnnn3)cc2)nc(Nc2ccc(N3CCOCC3)cc2)n1` [Compound 109, 4-(4-((1H-tetrazol-1-yl)methyl)phenylthio)-N-(4-morpholinophenyl)pyrimidin-2-ae], the IC50 in the assay with BaF3 wild-type cells is < 20 µM. In addition, the GI50 (on BaF3 TELJAK3 cells; in assay [1]) was < 20 µM throughout.
Turning to `C=CC(=O)Nc1cccc(Nc2nccc(Sc3ccccc3)n2)c1` [Compound 16, N-(3-(4-(phenylthio)pyrimidin-2-ylamino)phenyl)acrylamide], in the assay with BaF3 wild-type cells, the IC50 was < 20 µM. For the same molecule, the GI50 is < 1 µM at BaF3 TELJAK3 cells and < 5 µM in assay [1].
`C=CC(=O)Nc1ccc(Sc2ccnc(Nc3cccc(N4CCOCC4)c3)n2)cc1` [Compound 77, N-(4-(2-(3-morpholinophenylao)pyrimidin-4-ylthio)phenyl)acrylamide]: in the assay with BaF3 wild-type cells, the IC50 was < 5 µM. Also, the GI50 at BaF3 TELJAK3 cells is < 1 µM; in assay [1], < 5 µM.
As for `C=CC(=O)Nc1ccc(Sc2nc(Nc3ccc(N4CCCC(O)C4)cc3)ncc2C)cc1` (stereo not drawn) [Compound 299, N-(4-(2-(4-(3-hydroxypiperidin-1-yl)phenylao)-5-methylpyrimidin-4-ylthio)phenyl)acrylamide], the IC50 in the assay on BaF3 wild-type cells is < 20 µM. Also, the GI50 at BaF3 TELJAK3 cells is < 1 µM; in assay [1] it was < 20 µM.
